From ChEMBL document CHEMBL3885881, “DrugMatrix”

Species on record: Rattus norvegicus
Assay: DrugMatrix - Regimen: Daily Repeat
Format: toxicity, organism-based, Sprague-Dawley
Design: regimen Daily Repeat, gender Male, age 6-8 weeks
Details: in vivo, po, route oral GAVAGE, vehicle .5 % CMC; for ABSOLUTE BASOPHIL / ABSOLUTE EOSINOPHIL / ABSOLUTE LYMPHOCYTE / ABSOLUTE MONOCYTE / ABSOLUTE SEGMENTED NEUTROPHIL / BASOPHIL / EOSINOPHIL / ERYTHROCYTE COUNT / HEMATOCRIT / HEMOGLOBIN / LEUKOCYTE COUNT / LYMPHOCYTE / MEAN CORPUSCULAR HEMOGLOBIN / MEAN CORPUSCULAR HEMOGLOBIN CONCENTRATION / MEAN CORPUSCULAR VOLUME / MONOCYTE / NEUTROPHIL / NUCLEATED RED BLOOD CELLS / PLATELET COUNT: tissue Blood; for ALANINE AMINOTRANSFERASE / ALBUMIN / ALKALINE PHOSPHATASE / ASPARTATE AMINOTRANSFERASE / BLOOD UREA NITROGEN / CARBON DIOXIDE / CHLORIDE / CHOLESTEROL / CREATINE PHOSPHOKINASE / CREATININE / GLUCOSE / LACTATE DEHYDROGENASE / LIPASE / PHOSPHORUS / POTASSIUM / SODIUM / TOTAL BILIRUBIN / TOTAL PROTEIN / URIC ACID: tissue Plasma
[1] = 55 mg/kg, 120 h, dose level Low, time 5 day
[2] = 1000 mg/kg, 72 h, dose level High, time 3 day
[3] = 1000 mg/kg, 120 h, dose level High, time 5 day

For CCN1CCCC1CNC(=O)c1cc(S(N)(=O)=O)ccc1OC (centres undefined) [SULPIRIDE], which “ABSOLUTE BASOPHIL” value [1] is on record?
Its value is 0 CELLS/uL.

And the “ABSOLUTE EOSINOPHIL” value [1]?
Its value is 0 CELLS/uL.

And the “ABSOLUTE LYMPHOCYTE” value [1]?
The value was 14792 CELLS/uL.

And the “ABSOLUTE MONOCYTE” value [1]?
The value was 54.33 CELLS/uL.

And the “ABSOLUTE SEGMENTED NEUTROPHIL” value [1]?
The value was 2187 CELLS/uL.

And the BASOPHIL [1]?
The BASOPHIL was 0%.

And the EOSINOPHIL [1]?
The EOSINOPHIL was 0%.

And the “ERYTHROCYTE COUNT” value [1]?
Its value is 5.47 x10E6/uL.

And the HEMATOCRIT [1]?
Its HEMATOCRIT is 34.67%.

And the HEMOGLOBIN [1]?
The HEMOGLOBIN was 13.83 G/DL.

And the “LEUKOCYTE COUNT” value [1]?
The value was 17.03 x10E3/uL.

What about the LYMPHOCYTE [1] of the same molecule?
Its LYMPHOCYTE is 86%.

What about the “MEAN CORPUSCULAR HEMOGLOBIN” value [1] of the same molecule?
The value was 25.3 pg.

And the “MEAN CORPUSCULAR HEMOGLOBIN CONCENTRATION” value [1]?
Its value is 39.93 G/DL.

What about the “MEAN CORPUSCULAR VOLUME” value [1] of the same molecule?
The value was 63.4 fL.

What about the MONOCYTE [1] of the same molecule?
The MONOCYTE was 0.33%.

What about the NEUTROPHIL [1] of the same molecule?
The NEUTROPHIL was 13.67%.

And the “NUCLEATED RED BLOOD CELLS” value [1]?
The value was 0 /100WBC.

What about the “PLATELET COUNT” value [1] of the same molecule?
The value was 1253.33 x10E3/uL.

And the “ALANINE AMINOTRANSFERASE” value [1]?
Its value is 50.67 u/L.

And the ALBUMIN [1]?
The ALBUMIN was 4.43 G/DL.

And the “ALKALINE PHOSPHATASE” value [1]?
The value was 322.67 u/L.

And the “ASPARTATE AMINOTRANSFERASE” value [1]?
Its value is 90 u/L.

What about the “BLOOD UREA NITROGEN” value [1] of the same molecule?
The value was 16 mg/dL.

And the “CARBON DIOXIDE” value [1]?
Its value is 28 mmol/L.

And the CHLORIDE [1]?
The CHLORIDE was 102 MEQ/L.

What about the CHOLESTEROL [1] of the same molecule?
The CHOLESTEROL was 86.33 mg/dL.

What about the “CREATINE PHOSPHOKINASE” value [1] of the same molecule?
Its value is 434.67 u/L.

What about the CREATININE [1] of the same molecule?
The CREATININE was 0.2 mg/dL.

And the GLUCOSE [1]?
The GLUCOSE was 160.33 mg/dL.

What about the “LACTATE DEHYDROGENASE” value [1] of the same molecule?
Its value is 149 u/L.

What about the LIPASE [1] of the same molecule?
The LIPASE was 9 u/L.

And the PHOSPHORUS [1]?
Its PHOSPHORUS is 13 mg/dL.

And the POTASSIUM [1]?
Its POTASSIUM is 6.98 MEQ/L.

What about the SODIUM [1] of the same molecule?
The SODIUM was 147.83 MEQ/L.

What about the “TOTAL BILIRUBIN” value [1] of the same molecule?
The value was 0.2 mg/dL.

And the “TOTAL PROTEIN” value [1]?
Its value is 6.2 G/DL.

And the “URIC ACID” value [1]?
Its value is 1.9 mg/dL.

What about the “ABSOLUTE BASOPHIL” value [2] of the same molecule?
The value was 0 CELLS/uL.

And the “ABSOLUTE EOSINOPHIL” value [2]?
Its value is 50.67 CELLS/uL.

What about the “ABSOLUTE LYMPHOCYTE” value [2] of the same molecule?
Its value is 15013.67 CELLS/uL.

And the “ABSOLUTE MONOCYTE” value [2]?
The value was 0 CELLS/uL.

What about the “ABSOLUTE SEGMENTED NEUTROPHIL” value [2] of the same molecule?
Its value is 1202.33 CELLS/uL.

What about the BASOPHIL [2] of the same molecule?
Its BASOPHIL is 0%.

What about the EOSINOPHIL [2] of the same molecule?
The EOSINOPHIL was 0.33%.

What about the “ERYTHROCYTE COUNT” value [2] of the same molecule?
Its value is 5.92 x10E6/uL.

What about the HEMATOCRIT [2] of the same molecule?
The HEMATOCRIT was 38.13%.

And the HEMOGLOBIN [2]?
The HEMOGLOBIN was 15.07 G/DL.

And the “LEUKOCYTE COUNT” value [2]?
Its value is 16.27 x10E3/uL.

And the LYMPHOCYTE [2]?
Its LYMPHOCYTE is 92%.

What about the “MEAN CORPUSCULAR HEMOGLOBIN” value [2] of the same molecule?
The value was 25.5 pg.

And the “MEAN CORPUSCULAR HEMOGLOBIN CONCENTRATION” value [2]?
The value was 39.53 G/DL.

What about the “MEAN CORPUSCULAR VOLUME” value [2] of the same molecule?
The value was 64.5 fL.

And the MONOCYTE [2]?
The MONOCYTE was 0%.

What about the NEUTROPHIL [2] of the same molecule?
The NEUTROPHIL was 7.67%.

And the “NUCLEATED RED BLOOD CELLS” value [2]?
Its value is 0 /100WBC.

And the “PLATELET COUNT” value [2]?
Its value is 1327 x10E3/uL.

And the “ALANINE AMINOTRANSFERASE” value [2]?
Its value is 52.33 u/L.

And the ALBUMIN [2]?
Its ALBUMIN is 4.53 G/DL.

What about the “ALKALINE PHOSPHATASE” value [2] of the same molecule?
Its value is 415 u/L.

What about the “ASPARTATE AMINOTRANSFERASE” value [2] of the same molecule?
Its value is 78.33 u/L.

What about the “BLOOD UREA NITROGEN” value [2] of the same molecule?
Its value is 16.67 mg/dL.

And the “CARBON DIOXIDE” value [2]?
Its value is 29.33 mmol/L.

What about the CHLORIDE [2] of the same molecule?
Its CHLORIDE is 102.67 MEQ/L.

And the CHOLESTEROL [2]?
Its CHOLESTEROL is 85 mg/dL.

And the “CREATINE PHOSPHOKINASE” value [2]?
The value was 227.33 u/L.

What about the CREATININE [2] of the same molecule?
The CREATININE was 0.21 mg/dL.

And the GLUCOSE [2]?
Its GLUCOSE is 146 mg/dL.

And the “LACTATE DEHYDROGENASE” value [2]?
The value was 310 u/L.

And the LIPASE [2]?
Its LIPASE is 9.33 u/L.

What about the PHOSPHORUS [2] of the same molecule?
The PHOSPHORUS was 14.17 mg/dL.

What about the POTASSIUM [2] of the same molecule?
The POTASSIUM was 7.01 MEQ/L.

What about the SODIUM [2] of the same molecule?
The SODIUM was 147.37 MEQ/L.

And the “TOTAL BILIRUBIN” value [2]?
The value was 0.2 mg/dL.

What about the “TOTAL PROTEIN” value [2] of the same molecule?
The value was 6.33 G/DL.

And the “URIC ACID” value [2]?
The value was 1.47 mg/dL.

And the “ABSOLUTE BASOPHIL” value [3]?
Its value is 0 CELLS/uL.

What about the “ABSOLUTE EOSINOPHIL” value [3] of the same molecule?
The value was 69.67 CELLS/uL.

And the “ABSOLUTE LYMPHOCYTE” value [3]?
The value was 10948.67 CELLS/uL.

What about the “ABSOLUTE MONOCYTE” value [3] of the same molecule?
Its value is 52.33 CELLS/uL.

What about the “ABSOLUTE SEGMENTED NEUTROPHIL” value [3] of the same molecule?
The value was 1129.33 CELLS/uL.

What about the BASOPHIL [3] of the same molecule?
Its BASOPHIL is 0%.

And the EOSINOPHIL [3]?
Its EOSINOPHIL is 0.67%.

What about the “ERYTHROCYTE COUNT” value [3] of the same molecule?
Its value is 5.48 x10E6/uL.

What about the HEMATOCRIT [3] of the same molecule?
Its HEMATOCRIT is 36.03%.

What about the HEMOGLOBIN [3] of the same molecule?
The HEMOGLOBIN was 14.33 G/DL.

And the “LEUKOCYTE COUNT” value [3]?
Its value is 12.2 x10E3/uL.

What about the LYMPHOCYTE [3] of the same molecule?
The LYMPHOCYTE was 89.67%.

And the “MEAN CORPUSCULAR HEMOGLOBIN” value [3]?
Its value is 26.17 pg.

And the “MEAN CORPUSCULAR HEMOGLOBIN CONCENTRATION” value [3]?
The value was 39.77 G/DL.

What about the “MEAN CORPUSCULAR VOLUME” value [3] of the same molecule?
Its value is 65.8 fL.

What about the MONOCYTE [3] of the same molecule?
Its MONOCYTE is 0.33%.

And the NEUTROPHIL [3]?
Its NEUTROPHIL is 9.33%.

And the “NUCLEATED RED BLOOD CELLS” value [3]?
Its value is 0.33 /100WBC.

And the “PLATELET COUNT” value [3]?
The value was 1145.33 x10E3/uL.

And the “ALANINE AMINOTRANSFERASE” value [3]?
The value was 56.33 u/L.

And the ALBUMIN [3]?
The ALBUMIN was 4.6 G/DL.

And the “ALKALINE PHOSPHATASE” value [3]?
Its value is 436.67 u/L.

What about the “ASPARTATE AMINOTRANSFERASE” value [3] of the same molecule?
The value was 86 u/L.

And the “BLOOD UREA NITROGEN” value [3]?
Its value is 17.67 mg/dL.

And the “CARBON DIOXIDE” value [3]?
The value was 26.33 mmol/L.

What about the CHLORIDE [3] of the same molecule?
The CHLORIDE was 99.33 MEQ/L.

What about the CHOLESTEROL [3] of the same molecule?
Its CHOLESTEROL is 77 mg/dL.

And the “CREATINE PHOSPHOKINASE” value [3]?
Its value is 198 u/L.

What about the CREATININE [3] of the same molecule?
The CREATININE was 0.18 mg/dL.

And the GLUCOSE [3]?
The GLUCOSE was 150.67 mg/dL.

And the “LACTATE DEHYDROGENASE” value [3]?
The value was 162 u/L.

And the LIPASE [3]?
Its LIPASE is 13.33 u/L.

What about the PHOSPHORUS [3] of the same molecule?
The PHOSPHORUS was 14.83 mg/dL.

And the POTASSIUM [3]?
Its POTASSIUM is 7.2 MEQ/L.

And the SODIUM [3]?
Its SODIUM is 147.4 MEQ/L.

What about the “TOTAL BILIRUBIN” value [3] of the same molecule?
The value was 0.2 mg/dL.

What about the “TOTAL PROTEIN” value [3] of the same molecule?
Its value is 6.37 G/DL.

What about the “URIC ACID” value [3] of the same molecule?
The value was 1.9 mg/dL.
